Data from patent publication US20250270246A1, “LINCOSAMIDES AND USES THEREOF” (President and Fellows of Harvard College, priority 2022, published 2025).
Counter-ions that a name gives are not always drawn. Like-named read-outs stand apart in the source and are kept apart here.

Experiments:
Assay in all cases: MIC by broth microdilution (CLSI)
Type in all cases: cell-based
S. aureus MMX 3035 = settings: Staphylococcus aureus, MMX3035, 24 h, read-out: MIC S. aureus MMX 3035
Method: (§1) Minimum inhibitory concentrations (MICs) were determined by the broth microdilution method following the Clinical and Laboratory Standards Institute (CLSI) guidelines. Test organisms consisted of standard reference strains from the American Type Culture Collection (ATCC; Manassa, VA, USA) and clinical isolates obtained from JMI Laboratories Inc. (North Liberty, IA, USA), Micromyx repository (MMX; Kalamazoo, MI, USA), and Massachusetts Eye and Ear Hospital (Boston, USA). Before the start of the MIC experiment, standard and test compound stock solutions were prepared in dimethyl sulfoxide (DMSO, Aldrich D2650) at a stock concentration of 2,560 μg/mL. The compound concentration range typically employed for each experiment was 64-0.06 μg/mL (2.5% final DMSO concentration). Iboxamycin was used as a comparator in all experiments. All bacterial strains were sub-cultured on blood agar plates (tryptic soy agar with 5% sheep blood, Hardy Diagnostics) and incubated overnight at 35° C. Organisms were suspended in cation-adjusted Mueller-Hinton broth (CaMHB, BD 212322) and optical density was adjusted to 0.5 McFarland standard. Suspensions were further diluted to obtain a final inoculum of 5×10^5 CFU/mL for broth microdilution experiments. The minimum concentration of compound required to inhibit visible bacterial growth after 24 h of incubation was recorded as the MIC in μg/mL. MICs for P. aeruginosa were recorded in cation-adjusted Mueller-Hinton broth which had been pre-treated with Chelex 100 ion exchange resin according to procedures reported in Ito et al. Antimicrob Agents Chemother (2016) 60 (12), 7396-7401.

S. aureus Clinical (cfr) = settings: Staphylococcus aureus, 24 h, read-out: MIC S. aureus Clinical (cfr)
Method: as §1

[1] = tested on: E. coli ATCC 25922 (HAV#006); settings: Escherichia coli, ATCC25922, 24 h, read-out: MIC E. coli ATCC 25922
Method: as §1

E. coli lptD mutant = settings: Escherichia coli, 24 h, read-out: MIC E. coli lptD mutant, lptD mutant / ΔlptD mutant; CaMHB, 24 h incubation
Method: as §1

[2] = tested on: A. baumannii ATCC 19606 (HAV#010); settings: Acinetobacter baumannii, ATCC19606, 24 h, read-out: MIC A. baumannii ATCC 19606
Method: as §1

[3] = tested on: E. faecalis ATCC 29212 (HAV#005); settings: Enterococcus faecalis, ATCC29212, 24 h, read-out: MIC E. faecalis ATCC 29212
Method: as §1

E. coli ΔtolC = settings: Escherichia coli, 24 h, read-out: MIC E. coli ΔtolC, ΔtolC; CaMHB, 24 h incubation
Method: as §1

E. faecium JMI-990536 = settings: Enterococcus faecium, JMI990536, 24 h, read-out: MIC E. faecium JMI-990536
Method: as §1

K. pneumoniae JMI-991193 = settings: Klebsiella pneumoniae, JMI991193, 24 h, read-out: MIC K. pneumoniae JMI-991193
Method: as §1

[4] = tested on: S. aureus ATCC 29213 (HAV#001); settings: Staphylococcus aureus, ATCC29213, 24 h, read-out: MIC S. aureus ATCC 29213
Method: as §1

[5] = MMX 3035, CaMHB, 24 h incubation
[6] = Clinical (cfr), CaMHB, 24 h incubation
[7] = HAV#006, ATCC 25922, CaMHB, 24 h incubation
[8] = HAV#010, ATCC 19606, CaMHB, 24 h incubation
[9] = HAV#005, ATCC 29212, CaMHB, 24 h incubation
[10] = JMI-990536, CaMHB, 24 h incubation
[11] = JMI-991193, CaMHB, 24 h incubation
[12] = HAV#001, ATCC 29213, CaMHB, 24 h incubation

Row | SMILES | MIC (S. aureus MMX 3035; [5]) | MIC (S. aureus Clinical (cfr); [6]) | MIC [1, 7] | MIC (E. coli lptD mutant) | MIC [2, 8] | MIC [3, 9] | MIC (E. coli ΔtolC) | MIC (E. faecium JMI-990536; [10]) | MIC (K. pneumoniae JMI-991193; [11]) | MIC [4, 12] | MIC (S. aureus MMX 3035) | MIC (S. aureus Clinical (cfr)) | MIC [1] | MIC [2] | MIC [3] | MIC (E. faecium JMI-990536) | MIC (K. pneumoniae JMI-991193) | MIC [4]
1 | CC(C)C[C@@H]1CCO[C@@H]2[C@H](CN[C@@H]2C(=O)N[C@@H]2C/C=C/[C@H](O)CS[C@H]3O[C@H]2[C@H](O)[C@H](O)[C@H]3O)C1 [FSA1608009, (4S,5aS,8S,8aR)-4-isobutyl-N-((1R,4S,8R,9R,10R,11S,12R,E)-4,10,11,12-tetrahydroxy-13-oxa-2-thiabicyclo[7.3.1]tridec-5-en-8-yl) octahydro-2H-oxepino[2,3-c]pyrrole-8-carboxamide formate salt] | > 64 µg/mL | > 64 µg/mL | > 64 µg/mL | > 64 µg/mL | > 64 µg/mL | > 64 µg/mL | > 64 µg/mL | > 64 µg/mL | > 64 µg/mL | 32 µg/mL | – | – | – | – | – | – | – | –
2 | CC(C)C[C@@H]1CCO[C@@H]2[C@H](CN[C@@H]2C(=O)N[C@@H]2C/C=C\[C@@H](CO)CS[C@H]3O[C@H]2[C@H](O)[C@H](O)[C@H]3O)C1 [FSA1608024, (4S,5aS,8S,8aR)-4-isobutyl-N-((1R,4S,8R,9R,10R,11S,12R,Z)-10,11,12-trihydroxy-4-(hydroxymethyl)-13-oxa-2-thiabicyclo[7.3.1]tridec-5-en-8-yl) octahydro-2H-oxepino[2,3-c]pyrrole-8-carboxamide formate salt] | 64 µg/mL | 64 µg/mL | 16 µg/mL | 4 µg/mL | > 64 µg/mL | 2 µg/mL | – | 2 µg/mL | > 64 µg/mL | 4 µg/mL | – | – | – | – | – | – | – | –
3 | CC(C)C[C@@H]1CCO[C@@H]2[C@H](CN[C@@H]2C(=O)N[C@@H]2C/C=C\C[C@@H](CN3CCCC3)S[C@H]3O[C@H]2[C@H](O)[C@H](O)[C@H]3O)C1 [FSA1606086, (4S,5aS,8S,8aR)-4-isobutyl-N-((1R,3S,8R,9R,10R,11S,12R,Z)-10,11,12-trihydroxy-3-(pyrrolidin-1-ylmethyl)-13-oxa-2-thiabicyclo[7.3.1]tridec-5-en-8-yl) octahydro-2H-oxepino[2,3-c]pyrrole-8-carboxamide formate salt] | 64 µg/mL | > 64 µg/mL | 64 µg/mL | 4 µg/mL | > 64 µg/mL | 16 µg/mL | 2 µg/mL | 16 µg/mL | > 64 µg/mL | 16 µg/mL | – | – | – | – | – | – | – | –
4 | CC(C)C[C@@H]1CCO[C@@H]2[C@H](CN[C@@H]2C(=O)N[C@H]2[C@H]3O[C@H](S[C@H](c4cn(-c5ccc(F)cc5F)nn4)C/C=C\[C@H]2C)[C@H](O)[C@@H](O)[C@H]3O)C1 [FSA1609052, (4S,5aS,8S,8aR)—N-((1R,3S,7R,8R,9R,10R,11S,12R,Z)-3-(1-(2,4-difluorophenyl)-1H-1,2,3-triazol-4-yl)-10,11,12-trihydroxy-7-methyl-13-oxa-2-thiabicyclo[7.3.1]tridec-5-en-8-yl)-4-isobutyloctahydro-2H-oxepino[2,3-c]pyrrole-8-carboxamide formate salt] | – | – | – | 0.125 µg/mL | – | – | 0.125 µg/mL | – | – | – | 0.5 µg/mL | 0.5 µg/mL | 2 µg/mL | 1 µg/mL | 0.25 µg/mL | 0.5 µg/mL | 4 µg/mL | 0.25 µg/mL
5 | CC(C)C[C@@H]1CCO[C@@H]2[C@H](CN[C@@H]2C(=O)N[C@@H]2C/C=C\[C@@H](CN3CCOCC3)CS[C@H]3O[C@H]2[C@H](O)[C@H](O)[C@H]3O)C1 [FSA1608036, (4S,5aS,8S,8aR)-4-isobutyl-N-((1R,4S,8R,9R,10R,11S,12R,Z)-10,11,12-trihydroxy-4-(morpholinomethyl)-13-oxa-2-thiabicyclo[7.3.1]tridec-5-en-8-yl) octahydro-2H-oxepino[2,3-c]pyrrole-8-carboxamide formate salt] | 16 µg/mL | 8 µg/mL | 1 µg/mL | – | 16 µg/mL | 1 µg/mL | 0.25 µg/mL | 1 µg/mL | 8 µg/mL | 0.5 µg/mL | – | – | – | – | – | – | – | –
6 | CC(C)C[C@@H]1CCO[C@@H]2[C@H](CN[C@@H]2C(=O)N[C@@H]2C/C=C/[C@@H](CO)CSC3O[C@H]2C(O)C(O)[C@H]3O)C1 (single isomer, unassigned) [FSA1608025A, formate salt] | 64 µg/mL | 64 µg/mL | 32 µg/mL | 8 µg/mL | > 64 µg/mL | 4 µg/mL | – | 8 µg/mL | > 64 µg/mL | 4 µg/mL | – | – | – | – | – | – | – | –
7 | CC(C)C[C@@H]1CCO[C@@H]2[C@H](CN[C@@H]2C(=O)N[C@H]2[C@H]3O[C@H](S[C@H](c4cn(-c5ccc(F)cc5)nn4)C/C=C\[C@H]2C)[C@H](O)[C@@H](O)[C@H]3O)C1 [FSA1609037, (4S,5aS,8S,8aR)—N-((1R,3S,7R,8R,9R,10R,11S,12R,Z)-3-(1-(4-fluorophenyl)-1H-1,2,3-triazol-4-yl)-10,11,12-trihydroxy-7-methyl-13-oxa-2-thiabicyclo[7.3.1]tridec-5-en-8-yl)-4-isobutyloctahydro-2H-oxepino[2,3-c]pyrrole-8-carboxamide formate salt] | – | – | – | 0.5 µg/mL | – | – | 0.5 µg/mL | – | – | – | 0.5 µg/mL | 1 µg/mL | 1 µg/mL | – | 0.25 µg/mL | – | 16 µg/mL | 0.5 µg/mL
8 | CC(C)C[C@@H]1CCO[C@@H]2[C@H](CN[C@@H]2C(=O)N[C@@H]2C/C=C/[C@@H](O)CS[C@H]3O[C@H]2[C@H](O)[C@H](O)[C@H]3O)C1 [FSA1608016, (4S,5aS,8S,8aR)-4-isobutyl-N-((1R,4R,8R,9R,10R,11S,12R,E)-4,10,11,12-tetrahydroxy-13-oxa-2-thiabicyclo[7.3.1]tridec-5-en-8-yl) octahydro-2H-oxepino[2,3-c]pyrrole-8-carboxamide formate salt] | > 64 µg/mL | > 64 µg/mL | 64 µg/mL | 8 µg/mL | > 64 µg/mL | 8 µg/mL | – | 8 µg/mL | > 64 µg/mL | 8 µg/mL | – | – | – | – | – | – | – | –
9 | CC(C)C[C@@H]1CCO[C@@H]2[C@H](CN[C@@H]2C(=O)N[C@@H]2C/C=C\[C@@H](CN3CCCC3)CS[C@H]3O[C@H]2[C@H](O)[C@H](O)[C@H]3O)C1 [FSA1608037, (4S,5aS,8S,8aR)-4-isobutyl-N-((1R,4S,8R,9R,10R,11S,12R,Z)-10,11,12-trihydroxy-4-(pyrrolidin-1-ylmethyl)-13-oxa-2-thiabicyclo[7.3.1]tridec-5-en-8-yl) octahydro-2H-oxepino[2,3-c]pyrrole-8-carboxamide formate salt] | > 64 µg/mL | > 64 µg/mL | > 64 µg/mL | 4 µg/mL | > 64 µg/mL | 16 µg/mL | – | 16 µg/mL | > 64 µg/mL | 32 µg/mL | – | – | – | – | – | – | – | –
